Experimental findings from patent publication US6632975B1, “Method for the production of in vivo model of hepatocellular carcinoma without lung metastasis” (Kabushiki Kaisha Daiyu-Kai Institute of Medical Science, priority 2000, dated 2003) are described below.

The data set relates to F344 Fisher rats. Description: Production of in vivo lung metastatic hepatoma model: incidences of hepatocellular carcinoma and lung metastasis, survival (Example 1). Set-up: species or system rat. As for the experimental part:
Animals used in this example were F344 Fisher rats (purchased from Charles River Japan Inc.).
Diethylnitrosoamine (hereinafter, referred to as “DEN”) and nitrosomorpholine (hereinafter, referred to as “NMOR”) were purchased from Tokyo Kasei Kogyo Co., Ltd.
DEN was diluted with physiological saline, and intraperitoneally injected in animals at a dose of 100 mg/kg body weight, or it was diluted with tap water to make the concentration of 50 ppm and administered via drinking water feeding bottle. NMOR was diluted with tap water to make the concentration of 120 ppm, and administered via a drinking water feeding bottle.
Animals were divided into four groups and treated as follows: Animals of the first group were given 50 ppm of DEN in drinking water for 16 weeks, and were sacrificed and subjected to autopsy in week 16. Animals of the second group were given 100 mg/kg body weight of DEN via intraperitoneal injection at the start of the experiment, and were sacrificed and subjected to autopsy in week 22. Animals of the third group were given 120 ppm of NMOR in drinking water for 22 weeks, and were sacrificed and subjected to autopsy in week 22. Animals of the fourth group were given 100 mg/kg body weight of DEN via intraperitoneal injection at the start of the experiment were given NMOR from the start to week 22 of the experiment, and were sacrificed and subjected to autopsy in week 22.
Liver and lung as well as other tissues were collected, fixed in formalin and stained with hematoxylin-eosin by the standard method to prepare specimens. Specimens were microscopically examined for presence of hepatocellular carcinoma in the liver and metastatic lesion in the lung to determine incidences of hepatocellular carcinoma and lung metastasis, which are shown in FIG. 1.

[1] abbreviates: DEN 50 ppm in drinking water for 16 weeks, autopsy week 16.
Setting [2] is: NMOR 120 ppm in drinking water for 22 weeks, autopsy week 22.

As for `CCN(CC)N=O` [DEN, Diethylnitrosoamine], under setting [1], the incidence of hepatoma came out at 100% and the lung metastasis entry is recorded as “no lung metastasis was observed”.

On to `O=NN1CCOCC1` [NMOR, nitrosomorpholine], for which, under setting [2], the incidence of hepatoma came out at 100% and the “lung metastasis (animals affected)” value was “only one animal”.
